As a reminder, the IC50 is the concentration that gives 50% inhibition.

SMILES strings stand for the structures. Structures can show the parent of a compound that is named as a salt. Where two headings read alike, the source gives them in different places.

The target of one experiment is BTK (Homo sapiens (Human), UniProt Q06187). Kind of experiment: In Vitro BTK Kinase Assay: Btk-PolyGAT-LS Assay. Conditions: active BTK enzyme 0.25 nM, ATP 10 μM, polyGAT 100 nM, 30 minutes. In kind it is biochemical. The method, boiled down: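 Recombinant BTK (0.25 nM) phosphorylating 100 nM polyGAT at 10 μM ATP in Tris-HCl pH 7.5 buffer with MgCl2, DTT, Triton X-100 and casein, 30 min, then EDTA stop.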

For experiment [1], the system named is CD69 expression on CD19+ B cells in whole blood. The experiment is described as follows: In Vitro Whole Blood CD69 Assay. In kind it is cell-based, Human. The protocol:
In Vitro Whole Blood CD69 Assay
Human heparinized venous blood from health donors was aliquoted into 96-well plate and “spiked” with serial dilutions of formula I compounds in DMSO or with DMSO without drug. The final concentration of DMSO in all wells was 0.1%. The plate was incubated at 37° C. for 30 min. Drug-containing samples were stimulated with 0.1 μg/mL mouse anti-human IgD-dextran (1A62) or 20 μg/mL polyclonal rabbit F(ab′)2 anti-human IgD. Phosphate-buffered saline (PBS) was added to the negative control unstimulated sample and the plates were incubated overnight (18 to 22 hours) at 37° C. Cells were stained with fluorochrome-conjugated anti-CD19 and anti-CD69 antibodies. Lyse/fix solution was used to remove red blood cells by hypotonic lysis and to fix the remaining cells, which were then analyzed by flow cytometry. CD19+ B cells were gated and analyzed for CD69 expression. The percentage of B cells expressing CD69 was plotted versus the log 10 of the concentration of the drug and the best-fit curves (variable Hill slope) were generated to obtain the IC50 value.

Where [2] appears, read: Homo sapiens, B-cell, human heparinized whole blood, anti-human IgD stimulation, percentage of CD19+ B cells expressing CD69, read-out: IC50.

BTK, sequence (Q06187 whole entry): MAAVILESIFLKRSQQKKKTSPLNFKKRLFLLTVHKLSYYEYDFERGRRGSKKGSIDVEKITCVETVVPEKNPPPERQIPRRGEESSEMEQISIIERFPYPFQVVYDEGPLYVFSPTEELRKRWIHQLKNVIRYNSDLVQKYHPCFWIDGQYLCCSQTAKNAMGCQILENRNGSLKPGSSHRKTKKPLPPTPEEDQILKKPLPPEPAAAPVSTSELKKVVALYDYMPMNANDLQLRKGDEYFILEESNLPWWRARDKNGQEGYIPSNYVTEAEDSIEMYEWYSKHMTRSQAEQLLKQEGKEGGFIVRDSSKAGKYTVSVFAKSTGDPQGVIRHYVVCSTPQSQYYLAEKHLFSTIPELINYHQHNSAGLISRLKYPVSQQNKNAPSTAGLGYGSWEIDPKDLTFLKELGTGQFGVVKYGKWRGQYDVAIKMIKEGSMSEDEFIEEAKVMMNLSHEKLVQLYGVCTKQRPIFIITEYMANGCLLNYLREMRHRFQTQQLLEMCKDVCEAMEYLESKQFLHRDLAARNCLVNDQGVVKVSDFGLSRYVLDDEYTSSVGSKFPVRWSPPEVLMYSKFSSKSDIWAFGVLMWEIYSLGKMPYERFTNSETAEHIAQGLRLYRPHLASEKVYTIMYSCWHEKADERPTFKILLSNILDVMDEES

`CO[C@@H]1CCN(c2cc3c(-c4ccc(CNC(=O)c5nc(C(C)(C)C)no5)c(C)c4)ncnn3c2)C1` (single isomer, unassigned) [Example 24]: the half-maximal inhibitory concentration (IC50) is at most 1 nM against BTK and 100 to 1000 nM in experiment [1] (setting [2]).

`Cc1c(CNC(=O)c2nc(C(C)(C)C)no2)ccc(-c2ncnn3cc(N4CCN(C)[C@@H](C)C4)cc23)c1F` (single isomer, unassigned) [Example 26]: the results for the IC50 (on BTK; in experiment [1] (setting [2])) were at most 1 nM and 100 to 1000 nM, respectively.

With `Cc1cc(-c2ncnn3cc(N4CCN(C)[C@@H](C)C4)cc23)ccc1CNC(=O)c1nc(C(C)(C)C)no1` (single isomer, unassigned) [Example 28], the IC50 at BTK is at most 1 nM; in experiment [1] (setting [2]), 100 to 1000 nM.

On to `Cc1cc(-c2ncnn3cc(N4CCO[C@H](C)C4)cc23)ccc1CNC(=O)c1noc(C(C)(C)C)n1` (single isomer, unassigned) [Example 30], for which the IC50 against BTK is at most 1 nM; in experiment [1] (setting [2]), 100 to 1000 nM.

In the case of `Cc1cc(-c2ncnn3cc(N4C[C@H](C)O[C@@H](C)C4)cc23)ccc1CNC(=O)c1noc(C(C)(C)C)n1` (single isomer, unassigned) [Example 44, hydrochloride], the half-inhibitory concentration (IC50) against BTK is at most 1 nM; in experiment [1] (setting [2]) it was 100 to 1000 nM.

As for `CC(C)(C)c1nc(C(=O)NCc2cc(F)c(-c3ncnn4cc(N5CCOCC5)cc34)cc2Cl)no1` [Example 1, 5-tert-butyl-N-[[2-chloro-5-fluoro-4-(6-morpholinopyrrolo[2,1-f][1,2,4]triazin-4-yl)phenyl]methyl]-1,2,4-oxadiazole-3-carboxamide], the 50% inhibitory concentration (IC50) against BTK was at most 1 nM; in experiment [1] (setting [2]), above 1000 nM.

Turning to `Cc1c(CNC(=O)c2nc(C(C)(C)C)no2)ccc(-c2ncnn3cc(N4CCOCC4)cc23)c1F` [Example 2, 3-(tert-butyl)-N-(3-fluoro-2-methyl-4-(6-morpholinopyrrolo[2,1-f][1,2,4]triazin-4-yl)benzyl)-1,2,4-oxadiazole-5-carboxamide], the half-inhibitory concentration (IC50) is at most 1 nM at BTK and 100 to 1000 nM in experiment [1] (setting [2]).

Consider `Cc1cc(-c2ncnn3cc(N4CCN(C)CC4)cc23)ccc1CNC(=O)c1noc(C(C)(C)C)n1` [Example 4, 5-(tert-butyl)-N-(2-methyl-4-(6-(4-methylpiperazin-1-yl)pyrrolo[2,1-f][1,2,4]triazin-4-yl)benzyl)-1,2,4-oxadiazole-3-carboxamide trifluoroacetate], for which the IC50 was at most 1 nM against BTK and below 100 nM in experiment [1] (setting [2]).

With `Cc1cc(-c2ncnn3cc(N4CCOCC4)cc23)ccc1CNC(=O)c1noc(C(C)(C)C)n1` [Example 5, 5-(tert-butyl)-N-(2-methyl-4-(6-morpholinopyrrolo[2,1-f][1,2,4]triazin-4-yl)benzyl)-1,2,4-oxadiazole-3-carboxamide trifluoroacetate], the concentration for half-maximal inhibition (IC50) on BTK is at most 1 nM; in experiment [1] (setting [2]), 100 to 1000 nM.

On to `Cc1cc(-c2ncnn3cc(C4=CCOCC4)cc23)ccc1CNC(=O)c1noc(C(C)(C)C)n1` [Example 6, 5-(tert-butyl)-N-(4-(6-(3,6-dihydro-2H-pyran-4-yl)pyrrolo[2,1-f][1,2,4]triazin-4-yl)-2-methylbenzyl)-1,2,4-oxadiazole-3-carboxamide], for which the concentration for half-maximal inhibition (IC50) against BTK was at most 1 nM; in experiment [1] (setting [2]) it was 100 to 1000 nM; in experiment [1] (human heparinized whole blood, anti-human IgD stimulation, percentage of CD19+ B cells expressing CD69, read-out: IC50), below 100 nM.

As for `COCCn1cc(-c2cc3c(-c4ccc(CNC(=O)c5noc(C(C)(C)C)n5)c(C)c4)ncnn3c2)cn1` [Example 7, 5-(tert-butyl)-N-(4-(6-(1-(2-methoxyethyl)-1H-pyrazol-4-yl)pyrrolo[2,1-f][1,2,4]triazin-4-yl)-2-methylbenzyl)-1,2,4-oxadiazole-3-carboxamide], the half-inhibitory concentration (IC50) is at most 1 nM at BTK and below 100 nM in experiment [1] (setting [2]).

For `COC1CN(c2cc3c(-c4ccc(CNC(=O)c5noc(C(C)(C)C)n5)c(C)c4)ncnn3c2)C1` [Example 8, 5-(tert-butyl)-N-(4-(6-(3-methoxyazetidin-1-yl)pyrrolo[2,1-f][1,2,4]triazin-4-yl)-2-methylbenzyl)-1,2,4-oxadiazole-3-carboxamide], the IC50 on BTK is at most 1 nM; in experiment [1] (setting [2]), 100 to 1000 nM.

Consider `Cc1cc(-c2ncnn3cc(-c4ccn(C)n4)cc23)ccc1CNC(=O)c1noc(C(C)(C)C)n1` [Example 9, 5-(tert-butyl)-N-(2-methyl-4-(6-(1-methyl-1H-pyrazol-3-yl)pyrrolo[2,1-f][1,2,4]triazin-4-yl)benzyl)-1,2,4-oxadiazole-3-carboxamide trifluoroacetate], for which the IC50 against BTK is at most 1 nM; in experiment [1] (setting [2]), 100 to 1000 nM.

Regarding `Cc1cc(-c2ncnn3cc(-c4cnn(CC(F)F)c4)cc23)ccc1CNC(=O)c1noc(C(C)(C)C)n1` [Example 10, 5-(tert-butyl)-N-(4-(6-(1-(2,2-difluoroethyl)-1H-pyrazol-4-yl)pyrrolo[2,1-f][1,2,4]triazin-4-yl)-2-methylbenzyl)-1,2,4-oxadiazole-3-carboxamide trifluoroacetate], the IC50 on BTK was at most 1 nM; in experiment [1] (setting [2]), 100 to 1000 nM.

For the molecule `Cc1cc(-c2ncnn3cc(N4CCC(F)C4)cc23)ccc1CNC(=O)c1noc(C(C)(C)C)n1` (centres unmarked) [Example 11, 5-(tert-butyl)-N-(4-(6-(3-fluoropyrrolidin-1-yl)pyrrolo[2,1-f][1,2,4]triazin-4-yl)-2-methylbenzyl)-1,2,4-oxadiazole-3-carboxamide trifluoroacetate], the IC50 on BTK was at most 1 nM; in experiment [1] (setting [2]), 100 to 1000 nM.

As to `Cc1cc(-c2ncnn3cc(N4CCC(F)(F)C4)cc23)ccc1CNC(=O)c1noc(C(C)(C)C)n1` [Example 12, 5-(tert-butyl)-N-(4-(6-(3,3-difluoropyrrolidin-1-yl)pyrrolo[2,1-f][1,2,4]triazin-4-yl)-2-methylbenzyl)-1,2,4-oxadiazole-3-carboxamide trifluoroacetate], the 50% inhibitory concentration (IC50) was at most 1 nM against BTK and 100 to 1000 nM in experiment [1] (setting [2]).

As for `CC(C)(C)c1noc(C(=O)NCc2ccc(-c3ncnn4cc(N5CCOCC5)cc34)c(F)c2Cl)n1` [Example 14, 3-(tert-butyl)-N-(2-chloro-3-fluoro-4-(6-morpholinopyrrolo[2,1-f][1,2,4]triazin-4-yl)benzyl)-1,2,4-oxadiazole-5-carboxamide trifluoroacetate], the concentration for half-maximal inhibition (IC50) against BTK was at most 1 nM; in experiment [1] (Homo sapiens, B-cell), 100 to 1000 nM.

In the case of `CC(C)(C)c1nc(C(=O)NCc2ccc(-c3ncnn4cc(N5CCOCC5)cc34)cc2Cl)no1` [Example 15, 5-(tert-butyl)-N-(2-chloro-4-(6-morpholinopyrrolo[2,1-f][1,2,4]triazin-4-yl)benzyl)-1,2,4-oxadiazole-3-carboxamide trifluoroacetate], the IC50 on BTK is at most 1 nM; in experiment [1] (setting [2]), 100 to 1000 nM.

Consider `Cc1cc(-c2ccnc3cc(-c4cnn(C)c4)nn23)ccc1CNC(=O)c1noc(C(C)(C)C)n1` [Example 16, 5-(tert-butyl)-N-(2-methyl-4-(2-(1-methyl-1H-pyrazol-4-yl)pyrazolo[1,5-a]pyrimidin-7-yl)benzyl)-1,2,4-oxadiazole-3-carboxamide trifluoroacetate], for which the values for the half-inhibitory concentration (IC50) (on BTK; in experiment [1] (setting [2])) were at most 1 nM and 100 to 1000 nM, respectively.

For `Cc1c([C@@H](C)NC(=O)c2noc(C(C)(C)C)n2)ccc(-c2ncnn3cc(N4CCOCC4)cc23)c1F` [Example 31, (R)-5-(tert-butyl)-N-(1-(3-fluoro-2-methyl-4-(6-morpholinopyrrolo[2,1-f][1,2,4]triazin-4-yl)phenyl)ethyl)-1,2,4-oxadiazole-3-carboxamide], the IC50 on BTK is at most 1 nM; in experiment [1] (setting [2]), 100 to 1000 nM.

For `Cc1cc(-c2ncnn3cc(N4CCN(C5COC5)CC4)cc23)ccc1CNC(=O)c1noc(C(C)(C)C)n1` [Example 32, 5-(tert-butyl)-N-(2-methyl-4-(6-(4-(oxetan-3-yl)piperazin-1-yl)pyrrolo[2,1-f][1,2,4]triazin-4-yl)benzyl)-1,2,4-oxadiazole-3-carboxamide trifluoroacetate], the values for the IC50 (against BTK; in experiment [1] (setting [2])) were at most 1 nM and 100 to 1000 nM, respectively.

For the molecule `Cc1c(CNC(=O)c2noc(C(C)(C)CF)n2)ccc(-c2ncnn3cc(-c4cnn(C)c4)cc23)c1F` [Example 33, N-(3-fluoro-2-methyl-4-(6-(1-methyl-1H-pyrazol-4-yl)pyrrolo[2,1-f][1,2,4]triazin-4-yl)benzyl)-5-(1-fluoro-2-methylpropan-2-yl)-1,2,4-oxadiazole-3-carboxamide], the values for the IC50 (against BTK; in experiment [1] (setting [2])) were at most 1 nM and 100 to 1000 nM, respectively.

For `CC(C)(C)c1nc(C(=O)NCc2ccc(-c3ncnn4cc(N5CCOCC5)cc34)cc2C(F)(F)F)no1` [Example 34, 5-(tert-butyl)-N-(4-(6-morpholinopyrrolo[2,1-f][1,2,4]triazin-4-yl)-2-(trifluoromethyl)benzyl)-1,2,4-oxadiazole-3-carboxamide hydrochloride], the figures for the IC50 (against BTK; in experiment [1] (setting [2])) were at most 1 nM and 100 to 1000 nM, respectively.

For the molecule `COc1cc(-c2ncnn3cc(-c4cnn(C)c4)cc23)ccc1CNC(=O)c1noc(C(C)(C)C)n1` [Example 35, 5-(tert-butyl)-N-(2-methoxy-4-(6-(1-methyl-1H-pyrazol-4-yl)pyrrolo[2,1-f][1,2,4]triazin-4-yl)benzyl)-1,2,4-oxadiazole-3-carboxamide hydrochloride], the results for the IC50 (against BTK; in experiment [1] (setting [2])) were at most 1 nM and 100 to 1000 nM, respectively.

`Cc1cc(-c2ncnn3cc(-c4cnn(C5CC5)c4)cc23)ccc1CNC(=O)c1noc(C(C)(C)C)n1` [Example 237]: the half-maximal inhibitory concentration (IC50) against BTK is at most 1 nM.

(Values after US12391697B2, “Condensed bi-heterocycles as inhibiting agents for Bruton's tyrosine kinase” (BIOGEN MA INC., priority 2019, dated 2025).)
